One may read the mortality as the share of the test organisms that died.

This note sets out measurements from patent US20240292840A1, “TRIAZOLE COMPOUNDS FOR THE CONTROL OF INVERTEBRATE PESTS” (priority 2021, published 2024).

SMILES strings stand for the structures. Some results are limits rather than exact numbers.

The test system of assay [1] is Boll Weevil (Anthonomus grandis). The assay is described as follows: B.5 Boll weevil egg/larval test on insect diet in microtiter plates. The assay is classed as in vivo. The conditions noted are these: 120 h, egg and larval mortality, 5 days, read-out: mortality in comparison with untreated controls. The procedure:
B.5 Boll Weevil (Anthonomus grandis)
For evaluating control of boll weevil (Anthonomus grandis), the test unit consisted of 96-well-microtiter plates containing an insect diet and 5-10 A. grandis eggs.
The compounds were formulated using a solution containing 75% v/v water and 25% v/v DMSO. Different concentrations of formulated compounds were sprayed onto the insect diet at 5 μl, using a custom-built micro atomizer, at two replications.
After application, microtiter plates were incubated at about 25±1° C. and about 75±5% relative humidity for 5 days. Egg and larval mortality was then visually assessed.

For assay [2], the system named is Yellow Fever Mosquito (Aedes aegypti). The assay is described as follows: whole plant or invertebrate. The assay is classed as in vivo. The conditions noted are these: 48 h, larval mortality, 2 days, read-out: mortality in comparison with untreated controls. The procedure:
B.8 Yellow Fever Mosquito (Aedes aegypti)
For evaluating control of yellow fever mosquito (Aedes aegypti) the test unit consisted of 96-well-microtiter plates containing 200 μl of tap water per well and 5-15 freshly hatched A. aegypti larvae.
The active compounds were formulated using a solution containing 75% (v/v) water and 25% (v/v) DMSO. Different concentrations of formulated compounds or mixtures were sprayed onto the insect diet at 2.5 μl, using a custom-built micro atomizer, at two replications.
After application, microtiter plates were incubated at 28±1° C., 80±5% RH for 2 days. Larval mortality was then visually assessed.

Take `C/C(=N/O)n1ncnc1C(C)NC(=O)c1cc(C(F)(F)F)cc(C(F)(F)F)c1` (centres unmarked) [I.1-1, N-[1-[2-[(Z)—N-hydroxy-C-methyl-carbonimidoyl]-1,2,4-triazol-3-yl]ethyl]-3,5-bis(trifluoromethyl)benzamide]: in assay [1], the mortality at 2500 ppm was at least 75%.

On to `CCON=C(C)n1ncnc1C(C)NC(=O)c1cc(Cl)cc(C(F)(F)F)c1` (centres unmarked) [I.1-12, 3-chloro-N-[1-[2-(N-ethoxy-C-methyl-carbonimidoyl)-1,2,4-triazol-3-yl]ethyl]-5-(trifluoromethyl)benzamide], for which the mortality at 2500 ppm in assay [1] and in assay [2] was at least 75% throughout.

For `CC(=NOc1ccccc1)n1ncnc1C(C)NC(=O)c1cc(Cl)cc(C(F)(F)F)c1` (centres unmarked) [I.1-13, 3-chloro-N-[1-[2-[C-methyl-N-phenoxy-carbonimidoyl]-1,2,4-triazol-3-yl]ethyl]-5-(trifluoromethyl)benzamide], in assay [2], the mortality at 2500 ppm was at least 75%.

`C/C(=N\O)n1ncnc1C(C)NC(=O)c1cc(C(F)(F)F)cc(C(F)(F)F)c1` (centres unmarked) [I.1-76, N-[1-[2-[(E)-N-hydroxy-C-methyl-carbonimidoyl]-1,2,4-triazol-3-yl]ethyl]-3,5-bis(trifluoromethyl)benzamide]: the mortality at 2500 ppm in assay [1] is at least 75%.
